From ChEMBL document CHEMBL1144281, “Inhibitors of type I MetAPs containing pyridine-2-carboxylic acid thiazol-2-ylamide. Part 2: SAR studies on the pyridine ring 3-substituent” (Bioorg Med Chem Lett, 2005) come the findings set out here.

The nature of assay [1]: Inhibitory concentration against Methionine aminopeptidase-1 (ScMetAP1). Also on record: species or system Saccharomyces cerevisiae.
Assay [2] can be described thus: Inhibitory concentration against Methionine aminopeptidase-1 (EcMetAP1). Set-up: species or system Escherichia coli.

The structures appear in SMILES notation. A value given as a limit tells only on which side of the number the result lay.

A word on the IC50: it is the concentration at which inhibition is half-maximal. High values mean lower potency, low ones higher potency.

As to `O=C(CC1=CCCC1)Nc1cccnc1C(=O)Nc1nccs1`, the half-maximal inhibitory concentration (IC50) in assay [1] came to 5070 nM; in assay [2], 190 nM.

On to `O=C(CC1=CCCCC1)Nc1cccnc1C(=O)Nc1nccs1`, for which the values for the IC50 in assay [1] and in assay [2] were 8910 nM and 120 nM, respectively.

Take `CC1(C)OC1CC(=O)Nc1cccnc1C(=O)Nc1nccs1` (centres undefined): the values for the IC50 in assay [1] and in assay [2] were 3370 nM and 700 nM, respectively.

For `O=C(Nc1nccs1)c1ccccn1`, the IC50 turned out to be 7000 nM in assay [1] and 5000 nM in assay [2].

On to `O=C(O)c1ccccc1C(=O)Nc1cccnc1C(=O)Nc1nccs1`, for which the results for the IC50 in assay [1] and in assay [2] were 2270 nM and 330 nM, respectively.

For the molecule `CCOC(=O)C(=O)Nc1cccnc1C(=O)Nc1nccs1`, the IC50 was found to be 770 nM in assay [1] and 50 nM in assay [2].

Turning to `O=C(Nc1nccs1)c1ncccc1NC(=O)C1CC1`, the IC50 in assay [1] stood at 2560 nM; in assay [2], 130 nM.

In the case of `NCCC(=O)Nc1cccnc1C(=O)Nc1nccs1`, the results for the IC50 in assay [1] and in assay [2] were 130 nM and 74 nM, respectively.

Regarding `C=CCCC(=O)Nc1cccnc1C(=O)Nc1nccs1`, the 50% inhibitory concentration (IC50) in assay [1] came out at 12200 nM; in assay [2] it was 510 nM.

Consider `C=CC(=O)Nc1cccnc1C(=O)Nc1nccs1`, for which the half-maximal inhibitory concentration (IC50) in assay [1] is 620 nM; in assay [2], more than 100000 nM.

`O=C(Nc1cccnc1C(=O)Nc1nccs1)c1cccnc1`: the IC50 was 330 nM in assay [1] and 60 nM in assay [2].

Turning to `CC(C)(C)OC(=O)NCC(=O)Nc1cccnc1C(=O)Nc1nccs1`, the IC50 was found to be 380 nM in assay [1] and 49 nM in assay [2].

For `O=C(CN1CCOCC1)Nc1cccnc1C(=O)Nc1nccs1`, the IC50 in assay [1] was 510 nM; in assay [2] it was 59 nM.

Take `O=C(Nc1cccnc1C(=O)Nc1nccs1)C1=CCCCC1`: the results for the IC50 in assay [1] and in assay [2] were 21900 nM and 970 nM, respectively.

`CC(C)(C)OC(=O)NCCC(=O)Nc1cccnc1C(=O)Nc1nccs1`: the IC50 in assay [1] stood at 150 nM; in assay [2], 49 nM.

For the molecule `O=C(CN1CCCCC1)Nc1cccnc1C(=O)Nc1nccs1`, the IC50 in assay [1] amounted to 190 nM; in assay [2] it was 53 nM.

Take `CN(C)CC(=O)Nc1cccnc1C(=O)Nc1nccs1`: the IC50 in assay [1] stood at 420 nM; in assay [2], 120 nM.

For the molecule `C=C(C)CC(=O)Nc1cccnc1C(=O)Nc1nccs1`, the IC50 in assay [1] was found to be 4670 nM; in assay [2], 150 nM.

Take `O=C(CN1CCCC1)Nc1cccnc1C(=O)Nc1nccs1`: the IC50 came to 150 nM in assay [1] and 90 nM in assay [2].

As to `O=C(Nc1cccnc1C(=O)Nc1nccs1)C1=CCCC1`, the figures for the IC50 in assay [1] and in assay [2] were 5170 nM and 360 nM, respectively.

On to `CC1(C)OC1CCC(=O)Nc1cccnc1C(=O)Nc1nccs1` (centres undefined), for which the results for the IC50 in assay [1] and in assay [2] were 3300 nM and 560 nM, respectively.

As to `O=C(O)CC(=O)Nc1cccnc1C(=O)Nc1nccs1`, the values for the IC50 in assay [1] and in assay [2] were 1520 nM and 140 nM, respectively.

As for `O=C(Nc1nccs1)c1ncccc1NC(=O)C1CCCC1`, the half-maximal inhibitory concentration (IC50) in assay [1] is 2580 nM; in assay [2], 350 nM.

Turning to `O=C(Nc1nccs1)c1ncccc1NC(=O)C1CCC1`, the IC50 in assay [1] and in assay [2] was more than 100000 nM each time.

Turning to `NCC(=O)Nc1cccnc1C(=O)Nc1nccs1`, the IC50 is 210 nM in assay [1] and 92 nM in assay [2].

On to `O=C(CN(O)c1ccccc1)Nc1cccnc1C(=O)Nc1nccs1`, for which the IC50 in assay [1] worked out at 230 nM; in assay [2], 57 nM.

For `O=C(O)CCC(=O)Nc1cccnc1C(=O)Nc1nccs1`, the IC50 in assay [1] came to 2270 nM; in assay [2], 140 nM.

For `CCOC(=O)CC(=O)Nc1cccnc1C(=O)Nc1nccs1`, the IC50 in assay [1] was 720 nM; in assay [2], 75 nM.

Regarding `CC(C)=CCC(=O)Nc1cccnc1C(=O)Nc1nccs1`, the IC50 in assay [1] came out at 140 nM; in assay [2], 240 nM.

Turning to `O=C(CC1CCCC1)Nc1cccnc1C(=O)Nc1nccs1`, the IC50 in assay [1] came to 6720 nM; in assay [2], 790 nM.

With `C=CCC(=O)Nc1cccnc1C(=O)Nc1nccs1`, the IC50 in assay [1] was found to be 380 nM; in assay [2], 130 nM.

With `O=C(O)C(=O)Nc1cccnc1C(=O)Nc1nccs1`, the half-maximal inhibitory concentration (IC50) is more than 100000 nM in assay [1] and 620 nM in assay [2].

For the molecule `CCN(CC)CC(=O)Nc1cccnc1C(=O)Nc1nccs1`, the IC50 worked out at 230 nM in assay [1] and 49 nM in assay [2].

For `C/C=C/C(=O)Nc1cccnc1C(=O)Nc1nccs1`, the IC50 was 820 nM in assay [1] and more than 100000 nM in assay [2].

With `CC(C)=CC(=O)Nc1cccnc1C(=O)Nc1nccs1`, the IC50 in assay [1] came to 770 nM; in assay [2] it was 220 nM.

Regarding `O=C(Nc1nccs1)c1ncccc1NC(=O)C1CC=CCC1` (centres undefined), the figures for the IC50 in assay [1] and in assay [2] were 15100 nM and 810 nM, respectively.

For `CC(C)=CCCC(=O)Nc1cccnc1C(=O)Nc1nccs1`, the IC50 in assay [1] was 310 nM; in assay [2], 610 nM.
